Assays:
histamine H3 receptor = histamine H3 receptor (Homo sapiens, UniProt Q9Y5N1); assay: FLPPR assay, antagonistic activity on histamine H3 receptor; format: cell-based; settings: for inhibition at 0.005 µM: read-out: % Inh-AVERAGE @ 5 nM; for inhibition at 0.05 µM: read-out: % Inh-AVERAGE @ 50 nM
Method: The FLPPR assay (NIH Assay Guidance Manual: HTS Assay Validation-Section 4.3. Analysis (Potency), htpps://www.ncbi.nlm.nih.gov/books/NBK83783) was performed using SUVN-G3031 as a positive control, and 21 target compounds were tested for the antagonistic activity target to histamine H3 receptor.

hERG channel = hERG channel (Homo sapiens, UniProt Q12809); assay: in vitro; settings: Average inhibition rate (%) on hERG channel
From the text: In cardiomyocytes, inhibition of the delayed rectifier potassium current (IKr) channel protein encoded by the human Ether-a-go-go Related Gene (hERG) is the most important mechanism by which drugs lead to prolongation of the QT interval. hERG is characterized by a specific molecular structure, which allows it to be inhibited by different structures, leading to severe arrhythmias. Statistically, 25-40% of lead compounds show varying degrees of hERG-related toxicity. Therefore, early evaluation of the effects of compounds on hERG is crucial in the drug development process.
The inhibition rate of compounds on hERG channels was examined by manual membrane clamp technique on HEK293 cell line which is stably expressing hERG ion channels.

CCI model rats = assay: Analgesic effect, chronic constriction injury (CCI) model, mechanical withdrawal threshold; format: in vivo, SD rats
From the text: Exposing the sciatic nerve on male SD rats' (180-200 g) right hind leg, in the anterior segment where the sciatic nerve is about to bifurcate, use sterile chromic gut thread (No. 4, 0.15 mm in diameter) to ligate 4 loops loosely, with each loop 1-2 mm apart, and suture the muscle and skin to establish the chronic constriction injury (CCI) model. In the sham-operated group, only the sciatic nerve was exposed without ligation, and the muscle and skin were sutured. The mechanical withdrawal threshold was detected by electronic analgesia meter (IITC-2391) on the 7th day for 2 consecutive days.
The CCI model rats with stabilized mechanical withdrawal thresholds were randomly divided into five groups, named model group (model), pregabalin group (Pre, 30 mg/kg), BIOS-B-12 compound group (3 mg/kg), BIOS-B-12 compound group (1 mg/kg), and BIOS-B-12 compound group (0.3 mg/kg), and were administered at 1 mL/100 g by gavage, and the same column of saline was gavaged in Sham an model group. The basic value was determined before drug administration, and the mechanical withdrawal thresholds were detected at 0.5 h, 1 h, 2 h, 4 h, 6 h, and 24 h after a single drug administration, and the p value was calculated by ANOVA with T-test.
The CCI model rats with stabilized mechanical withdrawal thresholds were randomly divided into three groups, named model group (model), pregabalin group (Pre, 30 mg/kg), and BIOS-B-14 compound group (1 mg/kg), and were administered at 1 mL/100 g by gavage, and the same column of saline was gavaged in Sham and model group. The basic value was determined before drug administration, and the mechanical withdrawal thresholds were detected at 0.5 h, 1 h, 2 h, 4 h, and 6 h after a single drug administration, and the p value was calculated by ANOVA with T-test.

[1] = test system: histamine-induced scratching; assay: Antipruritic ability, histamine-induced scratching in mice; format: in vivo, C57BL/6J mice; settings: for Inhibition Rate (%) of number of scratches: BIOS-B-12 10 mg/kg 4 h, BIOS-B-18 10 mg/kg 1 h, Dex 3 mg/kg 1 h before histamine 500 μg/50 μL s.c., observed 30 min, (Model-Compound)/Model×100%
Method: The C57BL/6J male mice, with 6-8 weeks old, were randomly divided into model group (Model), BIOS-B-12 compound group (10 mg/kg), BIOS-B-18 compound group (10 mg/kg) and dexamethasone group (Dex, 3 mg/kg), with 7 animals in each group. The mice were injected subcutaneously with 500 μg/50 μL histamine at the back of the neck after the administration of dexamethasone for 1 h, BIOS-B-12 for 4 h, and BIOS-B-18 for 1 h, respectively, and immediately observed for 30 min. The number of scratched was recorded and the inhibition rate was calculated as (Model-Compound)/Model×100%.

Chain of hERG channel (Q12809 whole entry): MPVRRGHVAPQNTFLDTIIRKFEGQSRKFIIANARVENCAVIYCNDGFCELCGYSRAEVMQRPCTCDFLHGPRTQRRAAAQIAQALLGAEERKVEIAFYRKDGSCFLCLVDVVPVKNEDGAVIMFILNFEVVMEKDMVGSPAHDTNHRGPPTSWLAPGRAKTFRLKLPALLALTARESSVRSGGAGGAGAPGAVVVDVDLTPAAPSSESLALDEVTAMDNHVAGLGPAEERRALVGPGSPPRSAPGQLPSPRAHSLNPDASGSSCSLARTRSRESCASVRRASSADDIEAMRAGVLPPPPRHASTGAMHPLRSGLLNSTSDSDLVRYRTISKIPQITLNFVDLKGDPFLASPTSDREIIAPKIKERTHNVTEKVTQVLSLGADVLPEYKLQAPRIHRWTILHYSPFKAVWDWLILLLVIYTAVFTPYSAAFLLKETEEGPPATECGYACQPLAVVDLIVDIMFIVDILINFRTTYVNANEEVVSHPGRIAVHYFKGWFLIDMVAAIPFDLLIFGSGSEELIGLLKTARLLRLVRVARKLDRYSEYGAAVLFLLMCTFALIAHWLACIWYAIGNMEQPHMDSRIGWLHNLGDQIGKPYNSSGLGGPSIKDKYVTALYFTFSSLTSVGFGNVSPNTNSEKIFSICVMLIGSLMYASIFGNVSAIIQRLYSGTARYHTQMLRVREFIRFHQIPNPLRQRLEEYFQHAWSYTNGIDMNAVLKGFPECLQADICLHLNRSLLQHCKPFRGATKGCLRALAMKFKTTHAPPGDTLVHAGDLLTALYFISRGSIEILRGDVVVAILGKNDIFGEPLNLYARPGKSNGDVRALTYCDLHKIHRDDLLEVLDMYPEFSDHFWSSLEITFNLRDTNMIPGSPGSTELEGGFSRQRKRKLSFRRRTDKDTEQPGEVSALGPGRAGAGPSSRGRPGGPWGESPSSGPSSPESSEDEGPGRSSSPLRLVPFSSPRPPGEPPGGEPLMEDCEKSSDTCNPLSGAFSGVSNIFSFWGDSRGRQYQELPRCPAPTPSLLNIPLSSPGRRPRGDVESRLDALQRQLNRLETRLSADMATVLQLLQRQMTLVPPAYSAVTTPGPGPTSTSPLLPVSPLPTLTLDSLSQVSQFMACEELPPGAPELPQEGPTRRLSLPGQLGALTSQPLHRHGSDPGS
Chain of histamine H3 receptor (Q9Y5N1 whole entry, species assumed): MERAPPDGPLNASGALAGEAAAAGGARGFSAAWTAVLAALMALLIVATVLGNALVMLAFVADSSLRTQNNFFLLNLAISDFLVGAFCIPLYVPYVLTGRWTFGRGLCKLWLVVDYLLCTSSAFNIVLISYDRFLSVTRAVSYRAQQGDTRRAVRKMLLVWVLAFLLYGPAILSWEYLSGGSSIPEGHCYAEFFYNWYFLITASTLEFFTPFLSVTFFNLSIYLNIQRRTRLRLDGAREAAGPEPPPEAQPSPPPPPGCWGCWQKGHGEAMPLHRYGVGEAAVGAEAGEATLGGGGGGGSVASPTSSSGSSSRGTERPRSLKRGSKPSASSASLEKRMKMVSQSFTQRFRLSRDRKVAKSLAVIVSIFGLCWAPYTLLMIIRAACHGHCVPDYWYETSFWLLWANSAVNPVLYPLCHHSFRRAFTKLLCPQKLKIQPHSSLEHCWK

Compound | inhibition at 0.005 µM (histamine H3 receptor) [%] | inhibition at 0.05 µM (histamine H3 receptor) [%] | inhibition at 10 µM (hERG channel) [%] | also measured
O=C(CN1CCOCC1)Nc1ccc(OC2CC(N3CCCCC3)C2)cc1 (stereo not shown) [BIOS-B-1, 2-morpholino-N-(4-(3-(piperidin-1-yl)cyclobutoxy)phenyl)acetamide] | 91.7 | 100 | 8.54 | –
C[C@@H]1CCCN1CC(=O)Nc1ccc(OC2CC(N3CCCCC3)C2)cc1 (stereo partly drawn) [BIOS-B-2, (R)-2-(2-methylpyrrolidin-1-yl)-N-(4-(3-(piperidin-1-yl)cyclobutoxy)phenyl)acetamide] | 100 | 100 | – | –
O=C(CN1CCCCC1)Nc1ccc(OC2CC(N3CCCCC3)C2)cc1 (stereo not shown) [BIOS-B-3, 2-(piperidin-1-yl)-N-(4-(3-(piperidin-1-yl)cyclobutoxy)phenyl)acetamide] | 95.6 | 99.4 | – | –
CN1CCCN(CC(=O)Nc2ccc(OC3CC(N4CCCCC4)C3)cc2)CC1 (stereo not shown) [BIOS-B-4, 2-(4-methyl-1,4-diazepan-1-yl)-N-(4-(3-(piperidin-1-yl)cyclobutoxy)phenyl)acetamide] | 101 | 100 | – | –
O=C(CN1CCC(F)(F)CC1)Nc1ccc(OC2CC(N3CCCCC3)C2)cc1 (stereo not shown) [BIOS-B-5, 2-(4,4-difluoropiperidin-1-yl)-N-(4-(3-(piperidin-1-yl)cyclobutoxy)phenyl)acetamide] | 98.9 | 99.9 | – | –
O=C(CN1CCC(O)CC1)Nc1ccc(OC2CC(N3CCCCC3)C2)cc1 (stereo not shown) [BIOS-B-6, 2-(4-hydroxypiperidin-1-yl)-N-(4-(3-(piperidin-1-yl)cyclobutoxy)phenyl)acetamide] | 103 | 99.8 | – | –
O=C(CN1CCSCC1)Nc1ccc(OC2CC(N3CCCCC3)C2)cc1 (stereo not shown) [BIOS-B-7, N-(4-(3-(piperidin-1-yl)cyclobutoxy)phenyl)-2-thiomorpholinoacetamide] | 88.3 | 99.5 | – | –
O=C(CN1CCCC(CCO)C1)Nc1ccc(OC2CC(N3CCCCC3)C2)cc1 (stereo not shown) [BIOS-B-8, 2-(3-(2-hydroxyethyl)piperidin-1-yl)-N-(4-(3-(piperidin-1-yl)cyclobutoxy)phenyl)acetamide] | 101 | 99.5 | 4.82 | –
O=C(CN1CCNCC1)Nc1ccc(OC2CC(N3CCCCC3)C2)cc1 (stereo not shown) [BIOS-B-9, 2-(piperazin-1-yl)-N-(4-(3-(piperidin-1-yl)cyclobutoxy)phenyl)acetamide] | 101 | 99.6 | -1.03 | –
CN1CCN(CC(=O)Nc2ccc(OC3CC(N4CCCCC4)C3)cc2)CC1 (stereo not shown) [BIOS-B-10, 2-(4-methylpiperazin-1-yl)-N-(4-(3-(piperidin-1-yl)cyclobutoxy)phenyl)acetamide] | 99.5 | 97.5 | -1.26 | –
O=C(CN1CCCC(O)C1)Nc1ccc(OC2CC(N3CCCCC3)C2)cc1 (stereo not shown) [BIOS-B-11, 2-(3-hydroxypiperidin-1-yl)-N-(4-(3-(piperidin-1-yl)cyclobutoxy)phenyl)acetamide] | 97 | 99.4 | 2.96 | –
O=C(NCCN1CCOCC1)Nc1ccc(OC2CC(N3CCCCC3)C2)cc1 (stereo not shown) [BIOS-B-13, 1-(2-morpholinoethyl)-3-(4-(3-(piperidin-1-yl)cyclobutoxy)phenyl)urea] | 99.6 | 99.8 | -1.47 | –
C[C@@H]1CCCN1CCNC(=O)Nc1ccc(OC2CC(N3CCCCC3)C2)cc1 (stereo partly drawn) [BIOS-B-14, (R)-1-(2-(2-methylpyrrolidin-1-yl)ethyl)-3-(4-(3-(piperidin-1-yl)cyclobutoxy)phenyl)urea] | 100 | 101 | 0.17 | mechanical withdrawal thresholds vs model group (CCI model rats; 1 mg/kg single dose by gavage, 0.5 h to 5 h after administration, P<0.05, FIG. 2): significantly increased; period of analgesia time compared with pregabalin (CCI model rats; BIOS-B-14 1 mg/kg vs pregabalin 30 mg/kg, FIG. 2 study): longer period of analgesia time than that of pregabalin
O=C(NCCN1CCCCC1)Nc1ccc(OC2CC(N3CCCCC3)C2)cc1 (stereo not shown) [BIOS-B-15, 1-(4-(3-(piperidin-1-yl)cyclobutoxy)phenyl)-3-(2-(piperidin-1-yl)ethyl)urea] | 99 | 100 | -0.12 | –
CN1CCCN(CCNC(=O)Nc2ccc(OC3CC(N4CCCCC4)C3)cc2)CC1 (stereo not shown) [BIOS-B-17, 1-(2-(4-methyl-1,4-diazepan-1-yl)ethyl)-3-(4-(3-(piperidin-1-yl)cyclobutoxy)phenyl)urea] | 101 | 99.4 | 1.52 | –
O=C(NCCN1CCC(F)(F)CC1)Nc1ccc(OC2CC(N3CCCCC3)C2)cc1 (stereo not shown) [BIOS-B-18, 1-(2-(4,4-difluoropiperidin-1-yl)ethyl)-3-(4-(3-(piperidin-1-yl)cyclobutoxy)phenyl)urea] | 99.7 | 99.9 | -0.65 | number of histamine-induced scratched in mice ([1]; 10 mg/kg): reduced; antipruritic effect compared with positive control dexamethasone ([1]; 10 mg/kg vs dexamethasone 3 mg/kg): more effective than the positive control; Inhibition Rate (%) of number of scratches [1]: 55.0%
O=C(NCCN1CCC(O)CC1)Nc1ccc(OC2CC(N3CCCCC3)C2)cc1 (stereo not shown) [BIOS-B-19, 1-(2-(4-hydroxypiperidin-1-yl)ethyl)-3-(4-(3-(piperidin-1-yl)cyclobutoxy)phenyl)urea] | 101 | 101 | -0.09 | –
O=C(NCCN1CCSCC1)Nc1ccc(OC2CC(N3CCCCC3)C2)cc1 (stereo not shown) [BIOS-B-20, 1-(4-(3-(piperidin-1-yl)cyclobutoxy)phenyl)-3-(2-thiomorpholinoethyl)urea] | 100 | 101 | -0.66 | –
CN1CCN(CCNC(=O)Nc2ccc(OC3CC(N4CCCCC4)C3)cc2)CC1 (stereo not shown) [BIOS-B-22, 1-(2-(4-methylpiperazin-1-yl)ethyl)-3-(4-(3-(piperidin-1-yl)cyclobutoxy)phenyl)urea] | 101 | 99.5 | -2.43 | –
O=C(NCCN1CCCC(O)C1)Nc1ccc(OC2CC(N3CCCCC3)C2)cc1 (stereo not shown) [BIOS-B-23, 1-(2-(3-hydroxypiperidin-1-yl)ethyl)-3-(4-(3-(piperidin-1-yl)cyclobutoxy)phenyl)urea] | 100 | 100 | 0.37 | –
C[C@@H]1C[C@H]2[C@@H]3CCC4=CC(=O)C=C[C@]4(C)[C@@]3(F)[C@@H](O)C[C@]2(C)[C@@]1(O)C(=O)CO [Dex, dexamethasone, reference compound] | – | – | – | Inhibition Rate (%) of number of scratches [1]: 29.3%
CC(C)C[C@H](CN)CC(=O)O [Pregabalin, pregabalin, reference compound] | – | – | – | mechanical withdrawal thresholds vs model group (CCI model rats; 30 mg/kg single dose by gavage, only from 0.5 h to 1 h after administration, FIG. 2 study): significantly different; mechanical withdrawal thresholds vs model group (CCI model rats; 30 mg/kg single dose by gavage, only from 0.5 h to 2 h after administration, FIG. 1 study): significantly different
O=C(CN1CCOCC1)Nc1ccc(OC2CCN(C3CCC3)CC2)cc1 [SUVN-G3031, Samelisant, reference compound] | 57.8 | 85.8 | – | –

From patent US20250179040A1, “HISTAMINE H3 RECEPTOR ANTAGONISTS AND THEIR PHARMACEUTICAL USES” (HANGZHOU BIO-SINCERITY PHARMA-TECH CO., LTD., priority 2022, published 2025)
